{"source": "patent US9458479B2", "about": "“Method for late introduction of the (8R) hydroxyl group carbapenem β-lactam antibiotic synthesis” (THE JOHNS HOPKINS UNIVERSITY, priority 2009, dated 2016)", "key": {"ThnG": {"system": "ThnG", "assay": "In vitro reaction of carbapenam/ems with purified ThnG, HPLC and ESI-MS analysis of products", "format": "biochemical, Streptomyces cattleya", "settings": "1 mM substrate, 0.2 mg/mL ThnG, 25 mM MOPS pH 7.0, ferrous ammonium sulfate, α-KG, ascorbate, room temperature 1 h", "protocol": "(§1) Thienamycin biosynthetic cluster genes thnG and thnQ were cloned from genomic DNA and inserted into pET29b each bearing a C-terminal His6-tag. The recombinant proteins were overproduced in E. coli Rosetta2(DE3) and purified by Ni-NTA affinity chromatography. In vitro reactions in MOPS, pH 7.0, containing Fe(NH4)2(SO4)2, α-KG, ascorbate, the subject carbapenam/em, and either ThnG or ThnQ were incubated and analyzed by HPLC for the formation of new product(s). Salowe, S. P., et al., Biochemistry 29(27):6499-6508 (1990); Decristoforo, G. Anal. Chim. Acta 163(SEP):25-33 (1984). […] The products were immediately identifiable as carbapenems by their unique chromophores (λmax=290-320 nm). ThnQ produced a single new product more polar than 5, while ThnG produced two products, one with a shorter retention time and one with a longer retention time than that of 5.\nFor routine HPLC analysis, reactions were assembled containing 25 mM MOPS, pH 7.0, 1 mM ascorbate, 0.08 mM ferrous ammonium sulfate, 8 mM α-ketoglutarate (α-KG), 1 mM of the substrate and 0.2 mg/mL ThnG or ThnQ. Salowe, S. P., et al., Biochemistry 29(27):6499-6508 (1990). After addition of the protein, the reactions were incubated at room temperature for 1 h. The protein was then removed with an Amicon Ultra 10,000 MWCO filter. For ESI mass spectroscopic analysis of HPLC purified enzymatic products, reactions were assembled under similar conditions except containing 2 mM substrate, 2 mM ascorbate and 0.6 mg/mL ThnG or ThnQ.\n(§2) HPLC conditions: Phenomenex Luna 5 μC18(2) analytical column; Method 1, A=50 mM ammonium formate pH 8.5, B=MeOH, t=0 min 0% B, t=10 min 35% B, t=13 min 35% B, t=15 min 0% B, t=20 min 0% B. Method 2, A=50 mM ammonium formate pH 8.5, B=MeOH, t=0 min 0% B, t=10 min 33% B, t=18 min 33% B, t=20 min 0% B, t=25 min 0% B. λ=300 nm (carbapenem) or 220 nm (carbapenam). Decristoforo, G., Anal. Chim. Acta 163:25-33 (1984). Purified carbapenems were collected from the HPLC and analyzed directly by ESI mass spectrometry in the negative ion mode."}, "ThnQ": {"system": "ThnQ", "assay": "In vitro reaction of carbapenam/ems with purified ThnQ, HPLC and ESI-MS analysis of products", "format": "biochemical, Streptomyces cattleya", "settings": "1 mM substrate, 0.2 mg/mL ThnQ, 25 mM MOPS pH 7.0, ferrous ammonium sulfate, α-KG, ascorbate, room temperature 1 h", "protocol": "as §1, with “5. […]” for “5.”\nas §2, with “Decristoforo, G., Anal. Chim. Acta 163:25-33 (1984).” left out"}}}
{"smiles": "CCC1C(=O)N2C(C(=O)O)=C([S+]([O-])CCNC(C)=O)CC12", "note": "(stereo not drawn) [compound 8, PS-5 sulfoxide]", "values": [{"measurement": "product(s) of the ThnG-catalyzed reaction (HPLC, ESI-MS)", "setting": "ThnG", "value": "unable to catalyze desaturation"}]}
{"smiles": "CC[C@H]1C(=O)N2C(C(=O)O)=C(SCCNC(C)=O)C[C@H]12", "note": "[compound 5, PS-5]", "values": [{"measurement": "product(s) of the ThnQ-catalyzed reaction (HPLC, ESI-MS)", "setting": "ThnQ", "value": "stereospecifically hydroxylated PS-5 (5) to produce 2"}, {"measurement": "product(s) of the ThnG-catalyzed reaction (HPLC, ESI-MS)", "setting": "ThnG", "value": "identified as PS-7 (7) and PS-7 sulfoxide 9"}]}
{"smiles": "CC(=O)NCCSC1=C(C(=O)O)N2C(=O)[C@H]([C@@H](C)O)[C@H]2C1", "note": "[compound 2, N-acetyl thienamycin]", "values": [{"measurement": "product(s) of the ThnG-catalyzed reaction (HPLC, ESI-MS)", "setting": "ThnG", "value": "N-acetyl dehydrothienamycin (3)"}]}
{"smiles": "CCC1C(=O)N2C(C(=O)O)=C(S/C=C/NC(C)=O)CC12", "note": "(stereo not drawn) [compound 7, PS-7]", "values": [{"measurement": "product(s) of the ThnQ-catalyzed reaction (HPLC, ESI-MS)", "setting": "ThnQ", "value": "N-acetyl dehydrothienamycin (3)"}, {"measurement": "product(s) of the ThnG-catalyzed reaction (HPLC, ESI-MS)", "setting": "ThnG", "value": "able to convert 7 to its sulfoxide"}]}
